Columns and labels:
AXL = target: T1, AXL (Homo sapiens, UniProt P30530); assay: TR-FRET kinase activity assay, AXL; format: biochemical; conditions: ATP at Km, 60 minutes
T1 sequence (P30530 26-894): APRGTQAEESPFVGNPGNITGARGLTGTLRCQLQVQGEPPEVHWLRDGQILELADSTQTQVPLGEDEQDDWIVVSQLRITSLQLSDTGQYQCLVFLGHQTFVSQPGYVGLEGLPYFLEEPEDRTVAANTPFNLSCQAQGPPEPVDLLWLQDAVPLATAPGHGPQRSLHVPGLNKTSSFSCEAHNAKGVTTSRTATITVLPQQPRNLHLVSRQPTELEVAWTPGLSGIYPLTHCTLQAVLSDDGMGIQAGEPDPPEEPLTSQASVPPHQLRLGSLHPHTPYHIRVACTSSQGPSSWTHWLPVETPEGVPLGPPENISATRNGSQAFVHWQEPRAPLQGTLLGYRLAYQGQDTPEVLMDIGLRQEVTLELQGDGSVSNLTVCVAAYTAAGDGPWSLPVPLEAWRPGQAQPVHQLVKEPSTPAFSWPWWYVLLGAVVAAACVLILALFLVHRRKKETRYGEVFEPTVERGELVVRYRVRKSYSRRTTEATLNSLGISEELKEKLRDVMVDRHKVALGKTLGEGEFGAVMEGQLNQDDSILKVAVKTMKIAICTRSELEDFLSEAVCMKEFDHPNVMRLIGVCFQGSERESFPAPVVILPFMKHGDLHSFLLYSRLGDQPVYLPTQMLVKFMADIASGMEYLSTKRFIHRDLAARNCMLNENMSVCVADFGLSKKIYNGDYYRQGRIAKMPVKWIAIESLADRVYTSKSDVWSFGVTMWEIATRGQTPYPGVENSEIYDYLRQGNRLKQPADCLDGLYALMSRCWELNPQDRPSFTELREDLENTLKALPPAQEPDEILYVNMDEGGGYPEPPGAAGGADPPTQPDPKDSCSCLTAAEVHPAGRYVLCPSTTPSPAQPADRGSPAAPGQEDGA
Summary of the method: (§1)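 Compounds were tested against each kinase with ATP set at its own Km and a labelled tyrosine peptide substrate. Following one hour at room temperature in buffer containing 10 mM MgCl2 and 1 mM DTT, phosphorylated product was detected by Europium antibody TR-FRET after EDTA quench, and IC50 values were calculated.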

TYRO3 = target: T2, TYRO3 (Homo sapiens, UniProt Q06418); assay: TR-FRET kinase activity assay, TYRO3; format: biochemical; conditions: ATP at Km, 60 minutes
T2 sequence (Q06418 41-890): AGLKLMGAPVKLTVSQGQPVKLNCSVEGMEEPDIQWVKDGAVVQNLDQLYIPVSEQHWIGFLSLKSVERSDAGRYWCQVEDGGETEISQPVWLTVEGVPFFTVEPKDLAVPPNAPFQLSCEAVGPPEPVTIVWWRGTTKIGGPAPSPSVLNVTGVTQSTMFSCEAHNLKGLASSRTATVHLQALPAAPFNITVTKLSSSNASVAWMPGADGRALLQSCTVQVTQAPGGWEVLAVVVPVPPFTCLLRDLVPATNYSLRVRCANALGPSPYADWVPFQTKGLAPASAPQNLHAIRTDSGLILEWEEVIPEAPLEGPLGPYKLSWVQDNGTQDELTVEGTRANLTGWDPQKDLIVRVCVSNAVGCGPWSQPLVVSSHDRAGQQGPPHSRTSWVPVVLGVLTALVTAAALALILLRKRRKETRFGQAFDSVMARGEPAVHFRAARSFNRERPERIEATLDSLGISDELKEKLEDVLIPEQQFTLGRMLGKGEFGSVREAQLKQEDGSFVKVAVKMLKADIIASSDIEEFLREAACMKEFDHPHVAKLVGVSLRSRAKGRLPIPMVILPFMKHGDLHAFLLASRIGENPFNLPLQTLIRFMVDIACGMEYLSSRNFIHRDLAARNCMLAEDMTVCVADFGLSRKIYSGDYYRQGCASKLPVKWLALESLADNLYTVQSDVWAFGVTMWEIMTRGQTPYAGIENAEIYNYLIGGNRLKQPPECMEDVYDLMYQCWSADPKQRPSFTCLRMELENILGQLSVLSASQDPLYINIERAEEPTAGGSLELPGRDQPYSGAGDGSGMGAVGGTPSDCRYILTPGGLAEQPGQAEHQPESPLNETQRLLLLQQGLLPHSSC
Summary of the method: as §1

Compound | IC50 (AXL) [nM] | IC50 (TYRO3) [nM]
COCC(C)Nc1ncc2c(-c3ccc4ncoc4c3)cc(C3CCC(O)CC3)n2n1 (stereo not drawn) [Compound 552] | ≤ 100 | ≤ 100
COCC(C)Nc1ncc2c(-c3ccc4[nH]cnc4c3)cc(C3CCC(O)CC3)n2n1 (stereo not drawn) [Compound 553] | ≤ 100 | ≤ 100
COC[C@H](C)Nc1ncc2c(-c3cnn(C(C)(C)C(=O)N4CC[C@H](O)C4)c3)cc([C@H]3CC[C@H](O)CC3)n2n1 [Compound 554] | ≤ 100 | ≤ 100
COC[C@H](C)Nc1ncc2c(-c3cnn(C(C)(C)C(=O)N4CC[C@@H](O)C4)c3)cc([C@H]3CC[C@H](O)CC3)n2n1 [Compound 555] | ≤ 100 | ≤ 100
COC[C@H](C)Nc1ncc2c(-c3cnn(C(C)(C)C(=O)N4CCOC(C(C)(C)O)C4)c3)cc([C@H]3CC[C@H](O)CC3)n2n1 (stereo partly drawn) [Compound 556] | ≤ 100 | ≤ 100
CC(C)(O)C1CN(c2cc(-c3cc([C@H]4CC[C@H](O)CC4)n4nc(NCCOC(F)F)ncc34)ccn2)CCO1 (stereo partly drawn) [Compound 557] | ≤ 100 | ≤ 100
COC[C@H](C)Nc1ncc2c(-c3ccnc(N4CCO[C@H](C(C)(C)O)C4)c3)cc([C@H]3CC[C@H](O)CC3)n2n1 [Compound 558] | ≤ 100 | ≤ 100
COCC(C)Nc1ncc2c(-c3ccnc(N4CCOC(C(C)(C)O)C4)c3)cc(C3CCC(O)CC3)n2n1 (stereo not drawn) [Compound 559] | ≤ 100 | ≤ 100
COC[C@H](C)Nc1ncc2c(-c3cnn(C(C)(C)C(=O)N4CCOCC4)c3)cc([C@H]3CC[C@](C)(O)CC3)n2n1 [Compound 560] | ≤ 100 | ≤ 100
COC[C@H](C)Nc1ncc2c(-c3cnn(C(C)(C)C(=O)N4CCOCC4)c3)cc([C@H]3CC[C@@](C)(O)CC3)n2n1 [Compound 561] | ≤ 100 | ≤ 100
COCC(C)Nc1ncc2c(-c3cccc(N4CCOCC4)c3)cc(C3CCC(O)CC3)n2n1 (stereo not drawn) [Compound 562] | ≤ 100 | ≤ 100
COC[C@H](C)Nc1ncc2c(-c3cnn(C(C)(C)c4nnc(C5CC5)o4)c3)cc([C@H]3CC[C@H](O)CC3)n2n1 [Compound 563] | ≤ 100 | ≤ 100
COC[C@H](C)Nc1ncc2c(-c3cnn(C4COC4)c3)cc([C@H]3CC[C@@H](O)CC3)n2n1 [Compound 564] | ≤ 100 | ≤ 100
COC[C@H](C)Nc1ncc2c(-c3ccc(CN4CCN(C)CC4)nc3)cc([C@H]3CC[C@H](O)CC3)n2n1 [Compound 565] | ≤ 100 | ≤ 100
COC[C@H](C)Nc1ncc2c(-c3ccnc(C4COC4)c3)cc([C@H]3CC[C@H](O)CC3)n2n1 [Compound 566] | ≤ 100 | ≤ 100
CCS(=O)(=O)N1CC(CC#N)(n2cc(-c3cc([C@H]4CC[C@H](O)CC4)n4nc(N[C@@H](C)COC)ncc34)cn2)C1 [Compound 567] | ≤ 100 | ≤ 100
CC[C@]1(O)CC[C@H](c2cc(-c3ccnc(N4CCOCC4)c3)c3cnc(N[C@@H](C)COC)nn32)CC1 [Compound 568] | ≤ 100 | ≤ 100
COC[C@H](C)Nc1ncc2c(-c3cnn(C4COC4)c3)cc([C@@H]3CC[C@@H](O)C(C)(C)C3)n2n1 [Compound 570] | 100 to 1000 | ≤ 100
COC[C@H](C)Nc1ncc2c(-c3cnn(C4COC4)c3)cc([C@@H]3CC[C@H](O)C(C)(C)C3)n2n1 [Compound 571] | 100 to 1000 | ≤ 100
COC[C@H](C)Nc1ncc2c(-c3cncc([S@](C)(=N)=O)c3)cc([C@H]3CC[C@@H](O)CC3)n2n1 [Compound 572] | 100 to 1000 | ≤ 100

Compound | IC50 (AXL) [nM] | IC50 (TYRO3) [nM]
COC[C@H](C)Nc1ncc2c(-c3cncc([S@@](C)(=N)=O)c3)cc([C@H]3CC[C@H](O)CC3)n2n1 [Compound 573] | 100 to 1000 | ≤ 100
COC[C@H](C)Nc1ncc2c(-c3ccnc([S@@](C)(=N)=O)c3)cc([C@H]3CC[C@H](O)CC3)n2n1 [Compound 574] | 100 to 1000 | ≤ 100
COC[C@H](C)Nc1ncc2c(-c3ccnc([S@](C)(=N)=O)c3)cc([C@H]3CC[C@H](O)CC3)n2n1 [Compound 575] | 100 to 1000 | ≤ 100
COC[C@H](C)Nc1ncc2c([C@H]3CC[C@H](C(C)=O)CC3)cc([C@H]3CC[C@H](O)CC3)n2n1 [Compound 576] | 100 to 1000 | ≤ 100
COC[C@H](C)Nc1ncc2c([C@H]3CC[C@@H](C(=O)N4CCC(F)(F)CC4)CC3)cc([C@H]3CC[C@H](O)CC3)n2n1 [Compound 577] | ≤ 100 | ≤ 100
COC[C@H](C)Nc1ncc2c([C@H]3CC[C@H](C(=O)N4CC5(COC5)C4)CC3)cc([C@H]3CC[C@H](O)CC3)n2n1 [Compound 578] | 100 to 1000 | ≤ 100
COC[C@H](C)Nc1ncc2c([C@H]3CC[C@@H](C(=O)N4CC5(COC5)C4)CC3)cc([C@H]3CC[C@H](O)CC3)n2n1 [Compound 579] | 100 to 1000 | ≤ 100
C[C@@H](CC(F)(F)F)Nc1ncc2c(-c3ccnc([S@](C)(=N)=O)c3)cc([C@H]3CC[C@H](O)CC3)n2n1 [Compound 580] | ≤ 100 | ≤ 100
C[C@@H](CC(F)(F)F)Nc1ncc2c(-c3ccnc([S@@](C)(=N)=O)c3)cc([C@H]3CC[C@H](O)CC3)n2n1 [Compound 581] | ≤ 100 | ≤ 100
C[C@@H](CC(F)(F)F)Nc1ncc2c(-c3cncc([S@](C)(=N)=O)c3)cc([C@H]3CC[C@H](O)CC3)n2n1 [Compound 582] | ≤ 100 | ≤ 100
C[C@@H](CC(F)(F)F)Nc1ncc2c(-c3cncc([S@@](C)(=N)=O)c3)cc([C@H]3CC[C@H](O)CC3)n2n1 [Compound 583] | ≤ 100 | ≤ 100
COC[C@H](C)Nc1ncc2c(-c3ccnc(C(F)(F)F)c3)cc([C@H]3CC[C@H](O)CC3)n2n1 [Compound 584] | ≤ 100 | ≤ 100
COC[C@H](C)Nc1ncc2c(-c3cnn(C(C)(C)C(=O)N4CCO[C@@H](C(C)(C)O)C4)c3)cc([C@H]3CC[C@H](O)CC3)n2n1 [Compound 585] | ≤ 100 | ≤ 100
COC[C@H](C)Nc1ncc2c(-c3cnn(C(C)(C)C(=O)N4CCOC(C(C)(C)O)C4)c3)cc([C@H]3CC[C@H](O)CC3)n2n1 (stereo partly drawn) [Compound 586] | ≤ 100 | ≤ 100
COC[C@H](C)Nc1ncc2c(-c3cnn(C4COC4)c3)cc([C@@H]3CC[C@H](O)[C@H](C)C3)n2n1 [Compound 587] | ≤ 100 | ≤ 100
COC[C@H](C)Nc1ncc2c(-c3cnn(C4COC4)c3)cc([C@@H]3CC[C@H](O)[C@@H](C)C3)n2n1 [Compound 588] | 100 to 1000 | ≤ 100
COC[C@H](C)Nc1ncc2c(-c3cnn(C4COC4)c3)cc([C@@H]3CC[C@@H](O)[C@H](C)C3)n2n1 [Compound 589] | ≤ 100 | ≤ 100
COC[C@H](C)Nc1ncc2c(-c3cnn(C(C)(C)C(=O)N4C[C@@H](C)N[C@@H](C)C4)c3)cc([C@H]3CC[C@@H](O)CC3)n2n1 [Compound 591] | ≤ 100 | ≤ 100
C[C@@H](COC(F)F)Nc1ncc2c(-c3cnn(C(C)(C)C(=O)N4CCN(C)CC4)c3)cc([C@H]3CC[C@H](O)CC3)n2n1 [Compound 593] | ≤ 100 | ≤ 100
